These results are taken from patent US20110287089A1, “USE OF A SACCHAROMYCES CEREVISIAE MITOCHONDRIAL NUCLEIC ACIDS FRACTION FOR IMMUNE STIMULATION” (priority 2009, published 2011).

Peptide text beside a SMILES is read from it. * marks the point of attachment. X1 = CCCCCCCCCCCCCCCC(=O)OCC(C*)OC(=O)CCCCCCCCCCCCCCC

As a reminder, the fold induction is the signal under treatment as a multiple of the control signal.

The target of one series is T1, hTLR2 (Homo sapiens, UniProt O60603).
T1 construct: host or cells: HEK-293 (293/hTLR2-CD14, clone hTLR 2-luc)
T1 sequence (O60603 21-784): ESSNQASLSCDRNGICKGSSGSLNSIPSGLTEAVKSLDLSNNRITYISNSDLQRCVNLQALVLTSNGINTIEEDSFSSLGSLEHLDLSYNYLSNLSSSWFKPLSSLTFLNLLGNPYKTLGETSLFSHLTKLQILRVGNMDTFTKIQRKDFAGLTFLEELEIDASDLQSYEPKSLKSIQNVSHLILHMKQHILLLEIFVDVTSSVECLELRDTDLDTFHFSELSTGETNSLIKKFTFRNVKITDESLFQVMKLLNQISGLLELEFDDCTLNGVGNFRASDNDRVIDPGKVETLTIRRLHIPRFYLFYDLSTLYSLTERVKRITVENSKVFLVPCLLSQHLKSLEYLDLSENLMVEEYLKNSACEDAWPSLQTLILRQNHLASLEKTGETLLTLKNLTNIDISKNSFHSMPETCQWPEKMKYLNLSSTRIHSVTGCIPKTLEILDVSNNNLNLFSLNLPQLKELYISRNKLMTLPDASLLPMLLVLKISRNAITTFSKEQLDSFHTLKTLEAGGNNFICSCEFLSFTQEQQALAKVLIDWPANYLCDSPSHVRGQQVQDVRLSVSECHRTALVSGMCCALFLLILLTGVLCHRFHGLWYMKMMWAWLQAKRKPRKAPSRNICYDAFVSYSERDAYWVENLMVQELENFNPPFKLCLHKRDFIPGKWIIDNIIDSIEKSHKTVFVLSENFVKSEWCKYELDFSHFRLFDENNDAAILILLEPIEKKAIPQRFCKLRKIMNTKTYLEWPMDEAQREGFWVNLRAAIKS
T1 sequence (Q9Y2C9 32-796 partner): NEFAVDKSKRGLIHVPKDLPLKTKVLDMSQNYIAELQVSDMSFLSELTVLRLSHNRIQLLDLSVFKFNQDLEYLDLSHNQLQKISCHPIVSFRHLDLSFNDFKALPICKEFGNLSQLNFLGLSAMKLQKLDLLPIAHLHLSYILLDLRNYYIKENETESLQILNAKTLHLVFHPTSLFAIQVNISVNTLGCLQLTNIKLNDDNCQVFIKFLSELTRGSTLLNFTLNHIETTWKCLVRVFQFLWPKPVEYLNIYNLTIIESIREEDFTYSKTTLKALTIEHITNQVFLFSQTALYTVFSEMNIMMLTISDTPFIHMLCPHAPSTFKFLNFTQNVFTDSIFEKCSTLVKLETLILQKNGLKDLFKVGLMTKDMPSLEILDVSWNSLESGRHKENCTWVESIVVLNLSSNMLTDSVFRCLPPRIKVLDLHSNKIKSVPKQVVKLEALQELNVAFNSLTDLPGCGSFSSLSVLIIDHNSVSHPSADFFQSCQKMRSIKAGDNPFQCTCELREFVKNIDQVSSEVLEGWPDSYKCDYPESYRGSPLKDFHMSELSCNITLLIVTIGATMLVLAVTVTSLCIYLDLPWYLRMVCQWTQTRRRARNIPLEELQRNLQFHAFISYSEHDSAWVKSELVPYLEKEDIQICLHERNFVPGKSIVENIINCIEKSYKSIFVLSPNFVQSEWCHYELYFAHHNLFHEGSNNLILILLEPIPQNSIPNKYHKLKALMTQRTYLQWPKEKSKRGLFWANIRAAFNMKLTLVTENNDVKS
The class given is cell-based. Here is the method:
(§1) Cells: Human embryonic kidney cells 293 (HEK) were stably transfected with plasmids allowing for the constitutive expression of one or two Toll like Receptors of human origin (hTLR). The resulting cell lines 293/hTLR2-CD14, 293/hTLR3, 293/hTLR4-MD2-CD14, 293/hTLR5, 293/hTLR2/6, 293/hTLR7, 293/hTLR8 and 293/hTLR9 were purchased from InvivoGen (San Diego, Calif., USA). All cell lines were cultivated in the presence of Blasticidin S (10 μg/ml, InvivoGen) in Dulbecco's […] Eagle's medium (DMEM) supplemented with 10% fetal calf serum, 40 μg/ml Gentamycin, 2 mM Glutamine, 1 mM sodium pyruvate (Sigma) and 1× Non Essential Amino acids (NEAA, Gibco). In the case of 293/hTLR2-CD14 and 293/hTLR4-MD2-CD14 Hygromycin B was added to a concentration of 100 μg/ml. All eight cell lines were stably transfected with the NF-kB-inducible reporter plasmid pNiFty (InvivoGen). pNiFty encodes the firefly luciferase gene under control of an engineered ELAM1 promoter which combines five NF-kB sites and the proximal ELAM promoter. Stable transfectants were selected in the presence of 100 μg/ml Zeocin (InvivoGen). The emerging clones “hTLRx-luc” were characterized with respect to EC50 and fold-induction to the respective control TLR ligands. Clones with lowest EC50 and high fold inductions and good/acceptable growth behaviour were chosen.
(§2) In vitro TLR tests—method: Cells diluted in DMEM supplemented with 2% fetal calf serum, 40 μg/ml Gentamycin, 2 mM Glutamine, 1 mM sodium pyruvate (Sigma) and 1×MEM non essential amino acids (NEAA, Gibco) were seeded in 96 well plates. The next day. NA fraction (stock: 1 mg/ml) either alone or in combination with Lipofectin® (as described in Example 1) was added at a concentration of 16 μg/ml and 3-fold serial dilutions thereof. As positive controls, the cell lines were stimulated with a defined amount of their respective reference ligands. The day after stimulation (18-20 hours) later, cells were lysed in 100 μl buffer containing 125 mM Tris pH 7.8, 10 mM EDTA, 5 mM DTT and 5% Triton X-100. Firefly luciferase activity in 10 μl lysate was quantified by integrate measurement of flash luminescence over 1 sec (LB96 P Microlumat, Berthold) after addition of 50 μl luciferase revelation buffer (1× luciferase revelation buffer: 20 mM Tris pH 7.8, 1.07 mM MgCl2, 2.7 mM MgSO4, 0.1 mM EDTA, 33.3 mM DTT, 470 μM luciferine 530 μM ATP and 270 μM CoEnzyme A). The resulting relative light units (RLU) were expressed as percentage of induction compared to the control ligand and analyzed with the Graph Pad Prism 4 software using an equation for sigmoid dose response (determination of EC50).

A further series has as its target T2, hTLR2/6 (Homo sapiens, UniProt O60603+Q9Y2C9).
T2 construct: host or cells: HEK-293 (293/hTLR2/6, clone hTLR 2/6-luc)
The class given is cell-based. The procedure:
as §1, §2

For a further series, the target named is T3, hTLR5 (Homo sapiens, UniProt O60602).
T3 construct: host or cells: HEK-293 (293/hTLR5, clone hTLR 5-luc)
T3 sequence (O60602 21-858): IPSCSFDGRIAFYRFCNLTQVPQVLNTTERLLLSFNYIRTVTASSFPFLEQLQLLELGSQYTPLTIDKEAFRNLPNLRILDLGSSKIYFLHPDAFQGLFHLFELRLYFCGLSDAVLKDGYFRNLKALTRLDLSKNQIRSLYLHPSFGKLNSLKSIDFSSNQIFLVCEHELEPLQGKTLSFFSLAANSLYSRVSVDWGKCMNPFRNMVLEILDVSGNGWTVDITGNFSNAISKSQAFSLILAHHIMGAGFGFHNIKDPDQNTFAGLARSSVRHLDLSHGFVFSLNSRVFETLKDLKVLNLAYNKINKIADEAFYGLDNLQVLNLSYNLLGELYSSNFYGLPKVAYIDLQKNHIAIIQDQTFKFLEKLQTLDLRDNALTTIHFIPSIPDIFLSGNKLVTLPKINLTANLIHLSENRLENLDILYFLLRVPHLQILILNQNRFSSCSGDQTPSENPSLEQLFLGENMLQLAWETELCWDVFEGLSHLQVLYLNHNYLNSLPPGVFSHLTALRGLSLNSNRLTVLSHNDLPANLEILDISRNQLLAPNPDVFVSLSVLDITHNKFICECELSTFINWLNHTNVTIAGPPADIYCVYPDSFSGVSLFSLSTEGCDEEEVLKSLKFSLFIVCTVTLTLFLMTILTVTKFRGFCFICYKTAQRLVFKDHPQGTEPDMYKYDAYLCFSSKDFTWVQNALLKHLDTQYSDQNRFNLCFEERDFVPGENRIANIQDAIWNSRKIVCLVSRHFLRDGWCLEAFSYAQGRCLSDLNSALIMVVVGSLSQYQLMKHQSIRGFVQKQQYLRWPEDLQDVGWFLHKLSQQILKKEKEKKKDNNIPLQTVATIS
The format is cell-based. Here is the method:
as §1, §2

The test system of series [1] is R9F specific CD8+ T cells secreting IFN-γ. Briefly: In vivo ELISpot gamma interferon (IFN-γ) after immunisation with HPV16E7. The following applies: C57BL/6 mice; HPV16E7 protein 10 μg subcutaneously day 0, 7, 14, alone or with NA fraction (25 μg) or NA-B2 fraction (0.4 μg); splenocytes 7 days after last injection; FIG. 2. The procedure: Animals model: SPF healthy female C57BL/6 mice were obtained from Charles River (Les Oncins, France). The animals were 6-weeks-old upon arrival. At the beginning of experimentation, they were 7-week-old. The animals were housed in a single, exclusive room, air-conditioned to provide a minimum of 11 air changes per hour. The temperature and relative humidity ranges were within 20° C. and 24° C. and 40 to 70% respectively. Lighting was controlled automatically to give a cycle of 12 hours of light and 12 hours of darkness. Specific pathogen free status was checked by regular control of sentinel animals. Throughout the study the animals had access ad libitum to sterilized diet type RM1 (Dietex France, Saint Gratien). Sterile water was provided ad libitum via bottles.
IFN-γ ELIspot assay is a functional test to determine the ability of in vivo primed T cells to secrete IFN-γ upon re-stimulation in vitro with a specific peptide.
Animals were injected 3 times at a one week interval (day 0; day 7; day 14), subcutaneously (at the base of the tail) with preparations as described in Table 4.
Animals were then sacrificed 7 days after the last injection and their splenocytes were used to determine the frequency of R9F specific CD8+ T cells secreting IFN-γ upon re-stimulation. […]

The next series concerns the target T4, hTLR3 (Homo sapiens, UniProt O15455).
T4 construct: host or cells: HEK-293 (293/hTLR3, clone hTLR 3-luc)
T4 sequence (O15455 24-904): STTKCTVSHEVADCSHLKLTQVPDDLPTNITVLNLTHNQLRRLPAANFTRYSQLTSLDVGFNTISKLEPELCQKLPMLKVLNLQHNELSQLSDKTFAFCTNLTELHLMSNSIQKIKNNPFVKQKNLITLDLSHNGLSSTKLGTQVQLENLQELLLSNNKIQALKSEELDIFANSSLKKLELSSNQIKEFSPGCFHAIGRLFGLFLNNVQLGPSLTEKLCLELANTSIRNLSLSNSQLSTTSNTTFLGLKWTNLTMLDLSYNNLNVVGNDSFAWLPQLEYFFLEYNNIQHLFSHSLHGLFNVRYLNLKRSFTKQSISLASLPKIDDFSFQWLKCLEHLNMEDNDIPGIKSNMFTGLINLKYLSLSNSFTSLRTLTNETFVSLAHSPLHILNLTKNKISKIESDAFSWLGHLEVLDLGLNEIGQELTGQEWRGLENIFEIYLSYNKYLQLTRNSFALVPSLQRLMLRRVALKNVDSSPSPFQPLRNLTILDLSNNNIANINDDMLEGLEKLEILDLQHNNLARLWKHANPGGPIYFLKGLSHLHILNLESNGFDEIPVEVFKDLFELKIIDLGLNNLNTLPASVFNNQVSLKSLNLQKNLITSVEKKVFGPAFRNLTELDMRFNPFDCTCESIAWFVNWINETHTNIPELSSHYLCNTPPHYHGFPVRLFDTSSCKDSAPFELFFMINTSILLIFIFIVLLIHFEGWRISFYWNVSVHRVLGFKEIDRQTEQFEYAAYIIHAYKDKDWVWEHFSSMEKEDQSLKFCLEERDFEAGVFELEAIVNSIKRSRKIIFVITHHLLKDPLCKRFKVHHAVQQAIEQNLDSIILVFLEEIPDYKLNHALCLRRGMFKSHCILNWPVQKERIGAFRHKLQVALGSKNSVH
The class given is cell-based. The procedure:
as §1, §2

T2 sequence (O60603 21-784): as the sequence (O60603 21-784) above
T2 sequence (Q9Y2C9 32-796): as the sequence (Q9Y2C9 32-796 partner) above

`CCCCCCCCCCCCCCCC(=O)OCC(CSC[C@H](N)C(=O)NCC(=O)N[C@@H](CC(=O)O)C(=O)N1CCC[C@H]1C(=O)N[C@@H](CCCCN)C(=O)N[C@@H](Cc1c[nH]cn1)C(=O)N1CCC[C@H]1C(=O)N[C@@H](CCCCN)C(=O)N[C@@H](CO)C(=O)N[C@@H](Cc1ccccc1)C(=O)O)OC(=O)CCCCCCCCCCCCCCC` (stereo partly shown) [FSL-1] (H-C(X1)GDPKHPKSF-OH; N-terminus and C-terminus assumed): the fold induction on hTLR2 turned out to be 157; at hTLR2/6, 140.
Turning to Flagellin, on hTLR5, the Fold induction max/min was 392. Moreover, the “Ligand EC50” value at hTLR5 (hTLR 5-luc clone, control TLR ligand) is recorded as “Flagellin 66.2ng/ml”.
Turning to HPV16E7: HPV16 E7 protein antigen, the “Level of R9F specific T cells secreting IFN-γ (ELISpot)” value in series [1] is given as “no R9F specific (HPV16E7 protein) T cells secreting IFN-γ”.
Poly(I:C): on hTLR3, the Fold induction max/min was 62. On hTLR3 (hTLR 3-luc clone, control TLR ligand), the “Ligand EC50” value is on record as “Poly(I:C) 1.8ng/ml”.
